Patent US9404082B2, “Method for production of eosinophil from pluripotent stem cell” (KYOTO UNIVERSITY, priority 2010, dated 2016)

Tested on: ES cell (H1)-derived eosinophils
Experiment: Measurement of migratory capacity (Transwell)
Type: cell-based, human
Conditions: 1640 medium with 5% FBS, 1 to 2 hours, IL-5 0.2-25 ng/ml, Eotaxin 0.4-250 nM, fMLP 10 pM-100 nM, FIG. 3
Method: Eosinophils established from ES cells (H1) by the above method were transferred to Transwell, and 1640 medium supplemented with 5% FBS was added thereto. IL-5 (0.2 ng/ml to 25 ng/ml), Eotaxin (0.4 nM to 250 nM) and fMLP (10 pM to 100 nM) at various concentrations were added thereto, and culture was performed for 1 to 2 hours. Thereafter, the number of cells migrated from the top layer to the bottom layer was measured (FIG. 3).

Substance | number of cells migrated from the top layer to the bottom layer
fMLP | migrate in response to the respective types of stimulation
IL-5: cytokine used to stimulate eosinophil migration | migrate in response to the respective types of stimulation
Eotaxin: cytokine used to stimulate eosinophil migration | migrate in response to the respective types of stimulation
